Measured values published in the CheMixHub ionic liquid set.
± gives the uncertainty stated by the source.

Assay: xn = mol fraction of the nth substance listed
Details: for electrical conductivity: frequency 0.001 MHz

CCCCCCCCCCCCCC[P+](CCCCCC)(CCCCCC)CCCCCC.[c-]1nc[nH]n1 + CCCCCC[n+]1ccn(C)c1.O=S(=O)([N-]S(=O)(=O)C(F)(F)F)C(F)(F)F
viscosity [mPa·s], 100 kPa
Details	278.15 K	283.15 K	288.15 K	293.15 K	298.15 K	303.15 K	308.15 K	313.15 K	318.15 K	323.15 K
x2 = 0.1	5162 ± 770	3302 ± 470	2162 ± 300	1458 ± 200	1013 ± 140	720 ± 94	524 ± 67	389 ± 49	296 ± 37	229 ± 28
x2 = 0.195	4777 ± 700	3062 ± 440	2000 ± 280	1349 ± 180	930 ± 120	664 ± 86	484 ± 62	359 ± 45	273 ± 34	211 ± 26
x2 = 0.282	4094 ± 600	2612 ± 370	1719 ± 240	1162 ± 160	810 ± 110	579 ± 75	422 ± 54	314 ± 39	239 ± 30	185 ± 23
x2 = 0.378	3093 ± 440	1992 ± 280	1317 ± 180	900 ± 120	633 ± 82	456 ± 58	337 ± 42	253 ± 31	194 ± 24	152 ± 19
x2 = 0.493	2209 ± 310	1445 ± 200	970 ± 130	677 ± 88	485 ± 62	355 ± 45	267 ± 33	204 ± 25	159 ± 19	127 ± 15
x2 = 0.6	1397 ± 190	940 ± 120	641 ± 83	452 ± 58	329 ± 41	245 ± 30	186 ± 23	145 ± 18	115 ± 14	93 ± 11
x2 = 0.693	910 ± 120	619 ± 80	431 ± 55	308 ± 39	227 ± 28	171 ± 21	132 ± 16	104 ± 13	83 ± 10	67 ± 8
x2 = 0.792	612 ± 79	424 ± 54	301 ± 38	220 ± 27	165 ± 20	127 ± 16	99 ± 12	79 ± 10	64 ± 8	53 ± 6
x2 = 0.893	325 ± 41	235 ± 29	174 ± 22	132 ± 16	103 ± 13	81 ± 10	65 ± 8	54 ± 7	–	–

CO + CCCC[N+]1(C)CCCC1.O=S(=O)([N-]S(=O)(=O)C(F)(F)F)C(F)(F)F
Details	viscosity [mPa·s]
293.15 K, 101 kPa, x2 = 0	0.74 ± 0.03

CCC(O)CO (centres undefined) + CCCC[N+](C)(C)C.O=S(=O)([N-]S(=O)(=O)C(F)(F)F)C(F)(F)F
Details	viscosity [mPa·s]
328.15 K, 101 kPa, x1 = 1	10.3 ± 0.63

O=C([O-])C1=NN(c2ccc(S(=O)(=O)[O-])cc2)C(=O)C1N=Nc1ccc(S(=O)(=O)[O-])cc1.[Na+].[Na+].[Na+] (centres undefined) + CCCC[N+](CCCC)(CCCC)Cc1ccccc1.[Cl-] + O
101.3 kPa
Details	electrical conductivity, 298.15 K [S/m]	electrical conductivity, 308.15 K [S/m]	electrical conductivity, 318.15 K [S/m]	viscosity, 298.15 K [mPa·s]	viscosity, 308.15 K [mPa·s]	viscosity, 318.15 K [mPa·s]
x1 = 0.0001802, x2 = 1.802e-05	0.11 ± 0.012	0.131 ± 0.014	0.158 ± 0.017	0.933 ± 0.045	0.799 ± 0.045	0.663 ± 0.045
x1 = 0.0001803, x2 = 5.405e-05	0.119 ± 0.012	0.142 ± 0.015	0.182 ± 0.019	0.951 ± 0.045	0.818 ± 0.045	0.68 ± 0.045
x1 = 0.0001804, x2 = 9.008e-05	0.151 ± 0.016	0.168 ± 0.017	0.196 ± 0.02	0.971 ± 0.045	0.836 ± 0.045	0.699 ± 0.045
x1 = 0.0004504, x2 = 1.801e-05	0.176 ± 0.018	0.226 ± 0.023	0.28 ± 0.029	0.956 ± 0.045	0.818 ± 0.045	0.68 ± 0.045
x1 = 0.0004507, x2 = 5.403e-05	0.201 ± 0.021	0.248 ± 0.025	0.328 ± 0.033	0.975 ± 0.045	0.839 ± 0.045	0.698 ± 0.045
x1 = 0.000451, x2 = 9.005e-05	0.263 ± 0.027	0.301 ± 0.031	0.353 ± 0.035	0.996 ± 0.045	0.858 ± 0.045	0.719 ± 0.045
x1 = 0.0007205, x2 = 1.801e-05	0.245 ± 0.025	0.299 ± 0.03	0.384 ± 0.039	0.975 ± 0.045	0.836 ± 0.045	0.695 ± 0.045
x1 = 0.0007209, x2 = 5.402e-05	0.269 ± 0.028	0.342 ± 0.035	0.452 ± 0.045	0.995 ± 0.045	0.858 ± 0.045	0.715 ± 0.045
x1 = 0.0007213, x2 = 9.003e-05	0.369 ± 0.038	0.419 ± 0.043	0.478 ± 0.048	1.019 ± 0.045	0.878 ± 0.045	0.738 ± 0.045
x1 = 0.0009904, x2 = 1.8e-05	0.319 ± 0.032	0.38 ± 0.038	0.493 ± 0.05	0.994 ± 0.045	0.853 ± 0.045	0.711 ± 0.045
x1 = 0.000991, x2 = 5.4e-05	0.353 ± 0.036	0.438 ± 0.044	0.577 ± 0.058	1.015 ± 0.045	0.877 ± 0.045	0.733 ± 0.045
x1 = 0.0009916, x2 = 9e-05	0.469 ± 0.049	0.524 ± 0.053	0.603 ± 0.06	1.039 ± 0.045	0.897 ± 0.045	0.756 ± 0.045
x1 = 0.00126, x2 = 1.8e-05	0.398 ± 0.04	0.476 ± 0.048	0.609 ± 0.062	1.011 ± 0.045	0.869 ± 0.045	0.725 ± 0.045
x1 = 0.001261, x2 = 5.399e-05	0.435 ± 0.044	0.546 ± 0.055	0.716 ± 0.072	1.034 ± 0.045	0.895 ± 0.045	0.749 ± 0.045
x1 = 0.001262, x2 = 8.998e-05	0.582 ± 0.06	0.654 ± 0.066	0.763 ± 0.076	1.06 ± 0.045	0.917 ± 0.045	0.774 ± 0.045
x1 = 0.00153, x2 = 1.799e-05	0.472 ± 0.047	0.571 ± 0.058	0.735 ± 0.074	1.028 ± 0.045	0.884 ± 0.045	0.738 ± 0.045
x1 = 0.001531, x2 = 5.397e-05	0.511 ± 0.052	0.651 ± 0.066	0.852 ± 0.086	1.052 ± 0.045	0.913 ± 0.045	0.764 ± 0.045
x1 = 0.001532, x2 = 8.995e-05	0.702 ± 0.073	0.78 ± 0.079	0.902 ± 0.09	1.081 ± 0.045	0.938 ± 0.045	0.792 ± 0.045

CO + CCCC[n+]1ccc(C)cc1.F[B-](F)(F)F
Details	viscosity [mPa·s]
298.15 K, 101 kPa, x1 = 1	0.538 ± 0.059

CO/N=C(\C(=O)N[C@@H]1C(=O)N2C(C(=O)[O-])=C(CSc3nc(=O)c(=O)[n-]n3C)CS[C@H]12)c1csc(N)n1.[Na+].[Na+] + CCCC[n+]1ccc(C)cc1.[Br-] + O
viscosity [mPa·s], 100 kPa
Details	x1 = 0.0003495, x2 = 0	x1 = 0.0008732, x2 = 0	x1 = 0.001391, x2 = 0	x1 = 0.002502, x2 = 0	x1 = 0.00312, x2 = 0	x1 = 0.003888, x2 = 0	x1 = 0.004767, x2 = 0	x1 = 0.005484, x2 = 0
288.15 K	1.196 ± 0.049	1.273 ± 0.052	1.365 ± 0.056	1.604 ± 0.066	1.745 ± 0.072	1.964 ± 0.081	2.205 ± 0.091	2.45 ± 0.1
293.15 K	1.053 ± 0.043	1.12 ± 0.046	1.2 ± 0.049	1.399 ± 0.057	1.527 ± 0.063	1.701 ± 0.07	1.918 ± 0.079	2.122 ± 0.087
298.15 K	0.935 ± 0.038	0.994 ± 0.041	1.062 ± 0.044	1.231 ± 0.051	1.348 ± 0.055	1.495 ± 0.061	1.674 ± 0.069	1.858 ± 0.076
303.15 K	0.829 ± 0.034	0.885 ± 0.036	0.945 ± 0.039	1.1 ± 0.045	1.195 ± 0.049	1.323 ± 0.054	1.48 ± 0.061	1.638 ± 0.067
308.15 K	0.744 ± 0.031	0.794 ± 0.033	0.849 ± 0.035	0.982 ± 0.04	1.07 ± 0.044	1.184 ± 0.049	1.322 ± 0.054	1.455 ± 0.06
